Experimental data taken from PubChem BioAssay AID1963972 (Molecular Pharmacology Branch, DTP, NCI, 2024).

Test system: 945468-187-T-J2-PDC spheroids viability
Experiment: Anticancer human tumor 945468-187-T-J2-PDC patient-derived rectal carcinoma cell line growth inhibition [PI3K]
Settings: spheroids with HUVEC and MSC; for IC50: curve of first compound; for viability, T/C: stronger effect = lower value
Procedure, shortened: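 Combination activity was assessed by viability in multicellular tumor spheroids carrying HUVEC and MSC components. Agents were tested with PI3K inhibitors from a Cmax-based top dose (or 10 microM) downward in half-log increments.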
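Further: spheroids exposed to compounds for seven days before reading.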

`CC1(C)CCC(Nc2ncc(C(F)(F)F)c(-c3c[nH]c4c(P(C)(C)=O)c(C#N)ccc34)n2)CN1` (centres undefined) + CC(Nc1ncnc2nc[nH]c12)c1cc2cccc(Cl)c2c(=O)n1-c1ccccc1 showed an IC50 (second compound 0.0316 µM) of 667 nM, an IC50 (second compound 0.1 µM) of 605 nM and an IC50 (second compound 0.316 µM) of 736 nM. For the same compound, the IC50 (second compound 1 µM) was 685 nM, the IC50 (second compound 3.16 µM) was 665 nM and the IC50 (second compound 10 µM) was 548 nM. For the same compound, the viability, T/C (second compound 0.0316 µM, first compound 0.0316 µM) was 91.5%, the viability, T/C (second compound 0.0316 µM, first compound 0.1 µM) was 95.5% and the viability, T/C (second compound 0.0316 µM, first compound 0.316 µM) was 77.8%. For the same compound, the viability, T/C (second compound 0.0316 µM, first compound 1 µM) was 35%, the viability, T/C (second compound 0.0316 µM, first compound 3.16 µM) was 30.3% and the viability, T/C (second compound 0.0316 µM, first compound 10 µM) was 29.3%. It also gave a viability, T/C (second compound 0.1 µM, first compound 0.0316 µM) of 95.6%, a viability, T/C (second compound 0.1 µM, first compound 0.1 µM) of 92.4% and a viability, T/C (second compound 0.1 µM, first compound 0.316 µM) of 66.3%. It also gave a viability, T/C (second compound 0.1 µM, first compound 1 µM) of 37.2%, a viability, T/C (second compound 0.1 µM, first compound 3.16 µM) of 33.9% and a viability, T/C (second compound 0.1 µM, first compound 10 µM) of 30.5%. The viability, T/C (second compound 0.316 µM, first compound 0.0316 µM) was 89.7%, the viability, T/C (second compound 0.316 µM, first compound 0.1 µM) was 86.9% and the viability, T/C (second compound 0.316 µM, first compound 0.316 µM) was 63.7%. The viability, T/C (second compound 0.316 µM, first compound 1 µM) was 44.8%, the viability, T/C (second compound 0.316 µM, first compound 3.16 µM) was 35.1% and the viability, T/C (second compound 0.316 µM, first compound 10 µM) was 28.1%. It also gave a viability, T/C (second compound 1 µM, first compound 0.0316 µM) of 104%, a viability, T/C (second compound 1 µM, first compound 0.1 µM) of 81.5% and a viability, T/C (second compound 1 µM, first compound 0.316 µM) of 56.9%. It also gave a viability, T/C (second compound 1 µM, first compound 1 µM) of 40.7%, a viability, T/C (second compound 1 µM, first compound 3.16 µM) of 46.3% and a viability, T/C (second compound 1 µM, first compound 10 µM) of 25.6%. The viability, T/C (second compound 3.16 µM, first compound 0.0316 µM) was 92.4%, the viability, T/C (second compound 3.16 µM, first compound 0.1 µM) was 82.4% and the viability, T/C (second compound 3.16 µM, first compound 0.316 µM) was 69.2%. For the same compound, the viability, T/C (second compound 3.16 µM, first compound 1 µM) was 38.5%, the viability, T/C (second compound 3.16 µM, first compound 3.16 µM) was 34.9% and the viability, T/C (second compound 3.16 µM, first compound 10 µM) was 32.4%. It also gave a viability, T/C (second compound 10 µM, first compound 0.0316 µM) of 125%, a viability, T/C (second compound 10 µM, first compound 0.1 µM) of 76.3% and a viability, T/C (second compound 10 µM, first compound 0.316 µM) of 60.4%. The viability, T/C (second compound 10 µM, first compound 1 µM) was 42.8%, the viability, T/C (second compound 10 µM, first compound 3.16 µM) was 39% and the viability, T/C (second compound 10 µM, first compound 10 µM) was 21.5%.

For `Cn1cnc2c(F)c(Nc3ccc(Br)cc3Cl)c(C(=O)NOCCO)cc21` + COc1c(OCCCN2CCOCC2)ccc2c3n(c(=NC(=O)c4cnc(N)nc4)nc12)CCN3, the IC50 (second compound 0.00316 µM) was greater than 3000 nM, the IC50 (second compound 0.01 µM) was greater than 3000 nM and the IC50 (second compound 0.0316 µM) was 2950 nM. It also gave an IC50 (second compound 0.1 µM) of 657 nM, an IC50 (second compound 0.316 µM) of less than 9.49 nM and an IC50 (second compound 1 µM) of less than 9.49 nM. It also gave a viability, T/C (second compound 0.00316 µM, first compound 0.00949 µM) of 99.9%, a viability, T/C (second compound 0.00316 µM, first compound 0.03 µM) of 129% and a viability, T/C (second compound 0.00316 µM, first compound 0.0949 µM) of 109%. For the same compound, the viability, T/C (second compound 0.00316 µM, first compound 0.3 µM) was 94.6%, the viability, T/C (second compound 0.00316 µM, first compound 0.949 µM) was 85.4% and the viability, T/C (second compound 0.00316 µM, first compound 3 µM) was 81.5%. For the same compound, the viability, T/C (second compound 0.01 µM, first compound 0.00949 µM) was 125%, the viability, T/C (second compound 0.01 µM, first compound 0.03 µM) was 146% and the viability, T/C (second compound 0.01 µM, first compound 0.0949 µM) was 109%. For the same compound, the viability, T/C (second compound 0.01 µM, first compound 0.3 µM) was 94.1%, the viability, T/C (second compound 0.01 µM, first compound 0.949 µM) was 92.5% and the viability, T/C (second compound 0.01 µM, first compound 3 µM) was 67.5%. For the same compound, the viability, T/C (second compound 0.0316 µM, first compound 0.00949 µM) was 95%, the viability, T/C (second compound 0.0316 µM, first compound 0.03 µM) was 111% and the viability, T/C (second compound 0.0316 µM, first compound 0.0949 µM) was 85.4%. It also gave a viability, T/C (second compound 0.0316 µM, first compound 0.3 µM) of 98.6%, a viability, T/C (second compound 0.0316 µM, first compound 0.949 µM) of 71.9% and a viability, T/C (second compound 0.0316 µM, first compound 3 µM) of 49.6%. It also gave a viability, T/C (second compound 0.1 µM, first compound 0.00949 µM) of 102%, a viability, T/C (second compound 0.1 µM, first compound 0.03 µM) of 94.9% and a viability, T/C (second compound 0.1 µM, first compound 0.0949 µM) of 88.8%. The viability, T/C (second compound 0.1 µM, first compound 0.3 µM) was 74.1%, the viability, T/C (second compound 0.1 µM, first compound 0.949 µM) was 38.3% and the viability, T/C (second compound 0.1 µM, first compound 3 µM) was 17.7%. For the same compound, the viability, T/C (second compound 0.316 µM, first compound 0.00949 µM) was 39.9%, the viability, T/C (second compound 0.316 µM, first compound 0.03 µM) was 40% and the viability, T/C (second compound 0.316 µM, first compound 0.0949 µM) was 34.1%. For the same compound, the viability, T/C (second compound 0.316 µM, first compound 0.3 µM) was 21.9%, the viability, T/C (second compound 0.316 µM, first compound 0.949 µM) was 16.3% and the viability, T/C (second compound 0.316 µM, first compound 3 µM) was 6.67%. For the same compound, the viability, T/C (second compound 1 µM, first compound 0.00949 µM) was 20%, the viability, T/C (second compound 1 µM, first compound 0.03 µM) was 18.6% and the viability, T/C (second compound 1 µM, first compound 0.0949 µM) was 18.1%. For the same compound, the viability, T/C (second compound 1 µM, first compound 0.3 µM) was 11.3%, the viability, T/C (second compound 1 µM, first compound 0.949 µM) was 10.4% and the viability, T/C (second compound 1 µM, first compound 3 µM) was 5.87%.
